Assay results published in patent publication US10344024B2, “Compounds as ROR gamma modulators” (Glenmark Pharmaceuticals S.A., priority 2015, dated 2019).

Molecular target: T1, GST-tagged ROR gamma ligand binding domain (LBD) (Homo sapiens, UniProt P51449)
T1 construct: purchased Invitrogen
T1 sequence (P51449 269-508 limits assumed): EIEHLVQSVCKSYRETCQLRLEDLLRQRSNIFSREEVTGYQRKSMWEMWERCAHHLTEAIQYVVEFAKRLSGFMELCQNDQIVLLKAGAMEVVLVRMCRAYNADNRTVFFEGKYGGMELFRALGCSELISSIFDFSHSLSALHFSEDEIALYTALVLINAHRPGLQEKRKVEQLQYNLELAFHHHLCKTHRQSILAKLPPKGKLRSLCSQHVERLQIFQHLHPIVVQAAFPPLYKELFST
Experiment: TR-FRET assay for ROR gamma (LanthaScreen co-activator peptide recruitment)
Type: biochemical
Details: for inhibition at 1 µM: compound concentration 1 μM; for inhibition at 1 µM / inhibition at 10 µM: TR-FRET ratio 520/495, percent of control; for inhibition at 10 µM: compound concentration 10 μM; for IC50: from dose response curve, nonlinear regression, read-out: IC50 range
Outline: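 Antagonist-mode co-activator recruitment: 10 nM GST-RORγ LBD with compound (4% DMSO final) in 25 mM HEPES pH 7.4, 100 mM NaCl, 5 mM DTT, 0.01% BSA, 1 h at 22° C.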

## CCC(F)(F)c1ccc(CC(=O)Nc2ccc(-c3nccnc3N3CCN(C(C)=O)CC3)cc2)cc1 [Example 24, N-(4-(3-(4-Acetylpiperazin-1-yl)pyrazin-2-yl)phenyl)-2-(4-(1,1-difluoropropyl)phenyl)acetamide]
  inhibition at 1 µM: 61.6%
  inhibition at 10 µM: 83.6%

## CC(O)C(F)(F)c1ccc(CC(=O)Nc2ccc(-c3cnn(C(C)(C)C)c3-c3ccc(F)cc3)cc2)cc1 (centres unmarked) [Example 22, N-(4-(1-(tert-Butyl)-5-(4-fluorophenyl)-1H-pyrazol-4-yl)phenyl)-2-(4-(1,1-difluoro-2-hydroxypropyl)phenyl)acetamide]
  inhibition at 1 µM: 46.7%
  inhibition at 10 µM: 56.2%

## CC(O)C(F)(F)c1ccc(CC(=O)Nc2ccc(-c3nccnc3-c3cccc(Cl)c3)cc2)cc1 (centres unmarked) [Example 4, N-(4-(3-(3-Chlorophenyl)pyrazin-2-yl)phenyl)-2-(4-(1,1-difluoro-2-hydroxypropyl)phenyl)acetamide]
  inhibition at 1 µM: 60.7%
  inhibition at 10 µM: 77.8%
  IC50: > 0.5 µM

## CCC(F)(F)c1ccc(CC(=O)Nc2ccc(-c3nccnc3N3CCN(C)CC3)cc2)cc1 [Example 32, 2-(4-(1,1-Difluoropropyl)phenyl)-N-(4-(3-(4-methylpiperazin-1-yl)pyrazin-2-yl)phenyl)acetamide]
  inhibition at 1 µM: 15.3%
  inhibition at 10 µM: 65.1%

## CCC(F)(F)c1ccc(CC(=O)Nc2ccc(-c3nccnc3-c3ccc(Cl)cc3)cc2)cc1 [Example 1, N-(4-(3-(4-chlorophenyl)pyrazin-2-yl)phenyl)-2-(4-(1,1-difluoropropyl)phenyl) acetamide]
  inhibition at 1 µM: 80.9%
  inhibition at 10 µM: 81.5%
  IC50: < 0.05 µM

## CCC(F)(F)c1ccc(CC(=O)Nc2ccc(-c3nccnc3N(C)[C@@H](C)c3ccc(Cl)cc3)cc2)cc1 [Example 65, (S)-N-(4-(3-((1-(4-Chlorophenyl)ethyl)(methyl)amino)pyrazin-2-yl)phenyl)-2-(4-(1,1-difluoropropyl)phenyl)acetamide]
  inhibition at 1 µM: 76.1%
  inhibition at 10 µM: 83.2%
  IC50: 0.1 to 0.5 µM

## CCC(F)(F)c1ccc(CC(=O)Nc2ccc(-c3cccnc3-c3ccc(Cl)cc3)cc2)cc1 [Example 34, N-(4-(2-(4-Chlorophenyl)pyridin-3-yl)phenyl)-2-(4-(1,1-difluoropropyl)phenyl)acetamide]
  inhibition at 1 µM: 57.9%
  inhibition at 10 µM: 66.8%

## CCC(F)(F)c1ccc(CC(=O)Nc2ccc(-c3nccc(=O)n3-c3ccc(F)cc3Cl)cc2)cc1 [Example 49, N-(4-(1-(2-Chloro-4-fluorophenyl)-6-oxo-1,6-dihydropyrimidin-2-yl)phenyl)-2-(4-(1,1-difluoropropyl)phenyl)acetamide]
  inhibition at 1 µM: 84%
  inhibition at 10 µM: 88.8%
  IC50: < 0.05 µM

## Cc1ccc(-c2nccnc2-c2ccc(NC(=O)Cc3ccc(C(F)(F)C(C)O)cc3)cc2)c(C)c1 (centres unmarked) [Example 51, 2-(4-(1,1-Difluoro-2-hydroxypropyl)phenyl)-N-(4-(3-(2,4-dimethylphenyl)pyrazin-2-yl)phenyl)acetamide]
  inhibition at 1 µM: 73.2%
  inhibition at 10 µM: 81%
  IC50: < 0.05 µM

## CCC(F)(F)c1ccc(CC(=O)Nc2ccc(-c3nccnc3N[C@@H](C)c3ccc(Cl)cc3)cc2)cc1 [Example 63, (S)-N-(4-(3-((1-(4-Chlorophenyl)ethyl)amino)pyrazin-2-yl)phenyl)-2-(4-(1,1-difluoropropyl)phenyl)acetamide]
  inhibition at 1 µM: 86.8%
  inhibition at 10 µM: 91.2%
  IC50: 0.05 to 0.1 µM

## Cc1ncsc1CCOc1nccnc1-c1ccc(NC(=O)Cc2ccc(C(F)(F)C(C)O)cc2)cc1 (centres unmarked) [Example 92, 2-(4-(1,1-Difluoro-2-hydroxypropyl)phenyl)-N-(4-(3-(2-(4-methylthiazol-5-yl)ethoxy)pyrazin-2-yl)phenyl)acetamide]
  inhibition at 1 µM: 83.5%
  inhibition at 10 µM: 88%
  IC50: 0.05 to 0.1 µM
